Test results taken from ChEMBL document CHEMBL5352423, “Discovery of potent human dihydroorotate dehydrogenase inhibitors based on a benzophenone scaffold” (Eur J Med Chem, 2022).
≈ marks a conversion by molar mass, not a printed value. Each block holds one molecule with its values, some of them ahead of it.

Tests used:
[1] = biological target: T1, Dihydroorotate dehydrogenase (quinone), mitochondrial (Homo sapiens, UniProt Q02127); assay: Inhibition of human DHODH at 1 uM for 30 mins relative to control
[2] = biological target: T1, Dihydroorotate dehydrogenase (quinone), mitochondrial; assay: Inhibition of human DHODH at 100 nM for 30 mins relative to control
[3] = biological target: T1, Dihydroorotate dehydrogenase (quinone), mitochondrial; assay: Inhibition of human DHODH incubated for 30 mins
[4] = biological target: T1, Dihydroorotate dehydrogenase (quinone), mitochondrial; assay: Potency index, ratio of teriflunomide IC50 to test compound IC50 for human DHODH
[5] = Aqueous solubility of compound; type: physicochemical; settings: buffer
[6] = Toxicity in BALB/c mouse assessed as histopathological changes in liver administered at 300 mg/kg, po for 14 days; type: organism-based; settings: in vivo, 336 h, time 14 day
[7] = Toxicity in BALB/c mouse assessed as change in blood MCH administered at 300 mg/kg, po for 14 days; type: organism-based; settings: in vivo, 336 h, time 14 day
HCT-116 = assay: Antiproliferative activity against human HCT-116 cells incubated for 96 hrs by MTT assay; type: functional, cell-based; settings: HCT-116, 96 h
[8] = Toxicity in BALB/c mouse assessed as increase in albumin to globulin ratio administered at 300 mg/kg, po for 14 days; type: organism-based; settings: in vivo, 336 h, time 14 day
[9] = Toxicity in BALB/c mouse assessed as histopathological changes in spleen administered at 300 mg/kg, po for 14 days; type: organism-based; settings: in vivo, 336 h, time 14 day
[10] = Toxicity in BALB/c mouse assessed as change in blood neutrophil administered at 300 mg/kg, po for 14 days; type: organism-based; settings: in vivo, 336 h, time 14 day
[11] = Toxicity in BALB/c mouse assessed as histopathological changes in kidney administered at 300 mg/kg, po for 14 days; type: organism-based; settings: in vivo, 336 h, time 14 day
Kasumi 1 = assay: Antiproliferative activity against human Kasumi 1 cells incubated for 96 hrs by MTT assay; type: functional, cell-based; settings: Kasumi 1, 96 h
[12] = Toxicity in BALB/c mouse assessed as change in blood PLT administered at 300 mg/kg, po for 14 days; type: organism-based; settings: in vivo, 336 h, time 14 day
[13] = Toxicity in BALB/c mouse assessed as change in blood HCT administered at 300 mg/kg, po for 14 days; type: organism-based; settings: in vivo, 336 h, time 14 day
[14] = Cytotoxicity against human NCM460 cells incubated for 96 hrs by MTT assay; type: toxicity, cell-based
A-375 = assay: Antiproliferative activity against human A-375 cells incubated for 96 hrs by MTT assay; type: functional, cell-based; settings: A-375, 96 h
SUD4 = assay: Antiproliferative activity against human SU-DHL-4 cells incubated for 96 hrs by MTT assay; type: functional, cell-based; settings: SU-DHL-4, 96 h
KG-1 = assay: Antiproliferative activity against human KG-1 cells incubated for 96 hrs by MTT assay; type: functional, cell-based; settings: KG-1, 96 h
[15] = Toxicity in BALB/c mouse assessed as change in blood RBC administered at 300 mg/kg, po for 14 days; type: organism-based; settings: in vivo, 336 h, time 14 day
[16] = Selectivity index ratio of IC50 for human HL7702 cells to IC50 for human Raji cells; type: toxicity; settings: HL7702 cells and Raji cells, read-out: Ratio IC50
[17] = Lipophilicity, logP of compound; type: physicochemical; settings: octanol/water
[18] = biological target: Voltage-gated inwardly rectifying potassium channel KCNH2 (Homo sapiens, UniProt Q12809); assay: Inhibition of human ERG; type: toxicity
[19] = Toxicity in BALB/c mouse assessed as change in blood WBC administered at 300 mg/kg, po for 14 days; type: organism-based; settings: in vivo, 336 h, time 14 day
[20] = Toxicity in BALB/c mouse assessed as histopathological changes in lung administered at 300 mg/kg, po for 14 days; type: organism-based; settings: in vivo, 336 h, time 14 day
[21] = Cytotoxicity against human HL7702 cells incubated for 96 hrs by MTT assay; type: toxicity, cell-based, L02
[22] = Toxicity in BALB/c mouse assessed as induction of liver inflammation administered at 300 mg/kg, po for 14 days; type: organism-based; settings: in vivo, 336 h, time 14 day
U-937 = assay: Antiproliferative activity against human U-937 cells incubated for 96 hrs by MTT assay; type: functional, cell-based; settings: U-937, 96 h
[23] = Toxicity in BALB/c mouse assessed as change in blood lymphocytes administered at 300 mg/kg, po for 14 days; type: organism-based, Lymphocyte; settings: in vivo, 336 h, time 14 day
Raji = assay: Antiproliferative activity against human Raji cells incubated for 96 hrs by MTT assay; type: functional, cell-based
[24] = Toxicity in BALB/c mouse assessed as change in blood MPV administered at 300 mg/kg, po for 14 days; type: organism-based; settings: in vivo, 336 h, time 14 day
[25] = Toxicity in BALB/c mouse assessed as change in blood HGB administered at 300 mg/kg, po for 14 days; type: organism-based; settings: in vivo, 336 h, time 14 day
[26] = Toxicity in BALB/c mouse assessed as change in blood RDW administered at 300 mg/kg, po for 14 days; type: organism-based; settings: in vivo, 336 h, time 14 day
[27] = Toxicity in BALB/c mouse assessed as change in blood MCV administered at 300 mg/kg, po for 14 days; type: organism-based; settings: in vivo, 336 h, time 14 day
[28] = Cytotoxicity against human HCoEpiC cells incubated for 96 hrs by MTT assay; type: toxicity, cell-based
[29] = Toxicity in BALB/c mouse assessed as change in blood MCHC administered at 300 mg/kg, po for 14 days; type: organism-based; settings: in vivo, 336 h, time 14 day

T1 sequence (Q02127 whole entry): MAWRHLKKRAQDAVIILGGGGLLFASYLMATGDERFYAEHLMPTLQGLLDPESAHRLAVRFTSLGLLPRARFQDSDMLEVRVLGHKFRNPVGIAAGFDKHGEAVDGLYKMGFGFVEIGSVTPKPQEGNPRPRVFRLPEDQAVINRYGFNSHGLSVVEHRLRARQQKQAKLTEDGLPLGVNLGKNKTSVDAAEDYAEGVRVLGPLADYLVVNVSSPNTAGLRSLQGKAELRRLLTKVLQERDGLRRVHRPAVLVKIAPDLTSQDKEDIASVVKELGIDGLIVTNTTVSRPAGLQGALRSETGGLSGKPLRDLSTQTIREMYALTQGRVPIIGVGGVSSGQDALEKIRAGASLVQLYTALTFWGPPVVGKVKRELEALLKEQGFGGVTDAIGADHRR
Chain of Voltage-gated inwardly rectifying potassium channel KCNH2 (Q12809 whole entry): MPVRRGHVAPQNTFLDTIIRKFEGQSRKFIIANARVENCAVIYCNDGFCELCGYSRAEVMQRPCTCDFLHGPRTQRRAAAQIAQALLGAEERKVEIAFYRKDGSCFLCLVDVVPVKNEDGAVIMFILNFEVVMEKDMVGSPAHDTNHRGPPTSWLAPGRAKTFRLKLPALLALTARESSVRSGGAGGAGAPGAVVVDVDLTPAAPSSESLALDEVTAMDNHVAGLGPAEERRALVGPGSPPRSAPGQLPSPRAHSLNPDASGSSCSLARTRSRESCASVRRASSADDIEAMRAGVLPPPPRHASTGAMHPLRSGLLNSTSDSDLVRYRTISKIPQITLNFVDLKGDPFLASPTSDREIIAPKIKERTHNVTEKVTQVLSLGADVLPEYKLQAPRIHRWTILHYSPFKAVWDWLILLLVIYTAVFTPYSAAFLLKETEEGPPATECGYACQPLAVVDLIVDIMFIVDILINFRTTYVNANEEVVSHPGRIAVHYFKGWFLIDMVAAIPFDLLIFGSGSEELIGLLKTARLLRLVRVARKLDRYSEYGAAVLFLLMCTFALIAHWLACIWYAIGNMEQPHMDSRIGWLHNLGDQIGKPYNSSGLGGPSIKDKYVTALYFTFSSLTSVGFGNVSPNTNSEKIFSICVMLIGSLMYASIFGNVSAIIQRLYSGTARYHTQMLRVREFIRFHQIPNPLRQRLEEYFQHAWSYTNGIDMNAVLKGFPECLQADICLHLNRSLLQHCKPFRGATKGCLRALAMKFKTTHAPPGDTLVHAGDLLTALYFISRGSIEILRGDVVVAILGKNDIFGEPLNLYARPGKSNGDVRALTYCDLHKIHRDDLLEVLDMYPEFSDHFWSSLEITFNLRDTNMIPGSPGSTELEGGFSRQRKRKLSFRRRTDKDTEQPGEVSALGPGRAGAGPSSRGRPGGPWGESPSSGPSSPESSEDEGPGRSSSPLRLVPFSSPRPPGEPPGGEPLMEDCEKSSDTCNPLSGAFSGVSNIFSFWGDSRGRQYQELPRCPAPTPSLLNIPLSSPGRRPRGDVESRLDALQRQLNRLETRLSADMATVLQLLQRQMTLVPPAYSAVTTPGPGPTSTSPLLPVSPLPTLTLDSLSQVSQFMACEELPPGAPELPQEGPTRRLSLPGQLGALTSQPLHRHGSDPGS

SMILES: C/C(O)=C(\C#N)C(=O)Nc1cc(F)c(C(=O)c2ccccc2)cc1F
inhibition [1]: 76.3%
inhibition [2]: 43.8%

SMILES: C/C(O)=C(\C#N)C(=O)Nc1cc(O[C@@H](C)C(F)(F)F)c(C(=O)c2ccc3ccccc3c2)cc1F
inhibition [1]: 90.2%
inhibition [2]: 53.4%

SMILES: O=C(c1ccccc1)c1cc(F)c(Nc2ncccc2C(=O)O)c(F)c1
inhibition [1]: 90.4%
inhibition [2]: 67.2%
IC50 [3]: 0.0351 µM

SMILES: C/C(O)=C(\C#N)C(=O)Nc1cc(O[C@@H](C)C(F)(F)F)c(C(=O)c2cccc(Cl)c2)cc1F
inhibition [1]: 93.7%
inhibition [2]: 61.8%
IC50 [3]: 0.0548 µM

SMILES: CCOc1cc(NC(=O)/C(C#N)=C(/C)O)c(F)cc1C(=O)c1ccccc1
inhibition [1]: 83.1%
inhibition [2]: 49.8%

SMILES: O=C(c1ccccc1)c1ccc(Nc2ncccc2C(=O)O)c(F)c1
inhibition [1]: 86.3%
inhibition [2]: 57.7%
IC50 [3]: 0.0661 µM

SMILES: O=C(c1ccccc1)c1ccc(Nc2ncccc2C(=O)O)c(Cl)c1
inhibition [1]: 88.1%
inhibition [2]: 62.4%
IC50 [3]: 0.0635 µM

SMILES: O=C(c1ccccc1)c1ccc(Nc2ncccc2C(=O)O)cc1
inhibition [1]: 80.4%
inhibition [2]: 38.3%
IC50 [3]: 0.178 µM

SMILES: C/C(O)=C(\C#N)C(=O)Nc1cc(O[C@@H](C)C(F)(F)F)c(C(=O)c2ccccc2)cc1F
Ratio IC50 [4]: 14
inhibition [1]: 95.3%
inhibition [2]: 71.5%
IC50 [3]: 0.029 µM

SMILES: COc1cc(NC(=O)/C(C#N)=C(/C)O)c(F)cc1C(=O)c1ccccc1
inhibition [1]: 82.4%
inhibition [2]: 48.5%

SMILES: C/C(O)=C(\C#N)C(=O)Nc1ccc(C(=O)c2ccccc2)c(F)c1
inhibition [1]: 74.1%
inhibition [2]: 31.7%

SMILES: C/C(O)=C(\C#N)C(=O)Nc1cc(O[C@@H](C)C(F)(F)F)c(C(=O)c2ccc(Cl)cc2)cc1F
inhibition [1]: 91.3%
inhibition [2]: 56.8%
IC50 [3]: 0.0705 µM

SMILES: C/C(O)=C(\C#N)C(=O)Nc1ccc(C(=O)c2ccccc2)cc1
inhibition [1]: 57.3%
inhibition [2]: 30.8%

SMILES: C/C(O)=C(\C#N)C(=O)Nc1cc(O[C@@H](C)C(F)(F)F)c(C#N)cc1F
inhibition [1]: 76.3%
inhibition [2]: 31.8%

Second part, led by results:

inhibition [1]: 90%
inhibition [2]: 52.1%
SMILES: COc1ccc(C(=O)c2cc(F)c(NC(=O)/C(C#N)=C(/C)O)cc2O[C@@H](C)C(F)(F)F)cc1

inhibition [1]: 90.1%
inhibition [2]: 65.4%
IC50 [3]: 0.0356 µM
SMILES: CCC(C)Oc1cc(NC(=O)/C(C#N)=C(/C)O)c(F)cc1C(=O)c1ccccc1 (stereo unspecified)

inhibition [1]: 70.7%
inhibition [2]: 32.1%
SMILES: C/C(O)=C(\C#N)C(=O)Nc1ccc(C(=O)c2ccccc2)cc1F

inhibition [2]: 21.5%
SMILES: C/C(O)=C(\C#N)C(=O)Nc1ccc(C(F)(F)F)cc1

inhibition [1]: 89.9%
inhibition [2]: 66.1%
IC50 [3]: 0.0371 µM
SMILES: C/C(O)=C(\C#N)C(=O)Nc1cc(OC(C)C)c(C(=O)c2ccccc2)cc1F

solubility [5]: 109 µg/mL (≈ 241 µM)
IC50 (HCT-116): 0.64 µM
inhibition [1]: 96.9%
inhibition [2]: 79.1%
IC50 (A-375): 0.95 µM
logP [17]: 2.16
IC50 (U-937): 0.52 µM
IC50 [3]: 0.0239 µM
IC50 (Raji): 0.1 µM
SMILES: C/C(O)=C(\C#N)C(=O)Nc1cc(O[C@@H](C)C(F)(F)F)c(C(=O)c2ccccc2F)cc1F
Activity [6]: Toxic
Activity [7]: Non-Toxic
Activity [8]: Toxic
Activity [9]: Non-Toxic
Activity [10]: Non-Toxic
Activity [11]: Non-Toxic
IC50 (Kasumi 1): 0.41 µM
Activity [12]: Non-Toxic
Activity [13]: Non-Toxic
IC50 at 96 h [14]: > 10 µM
IC50 (SUD4): 1.65 µM
IC50 (KG-1): 0.53 µM
Activity [15]: Non-Toxic
selectivity ratio [16]: 21
IC50 [18]: > 100 µM
Activity [19]: Non-Toxic
Activity [20]: Non-Toxic
IC50 at 96 h [21]: 2.1 µM
Activity [22]: Toxic
Activity [23]: Non-Toxic
Activity [24]: Non-Toxic
Activity [25]: Non-Toxic
Activity [26]: Non-Toxic
Activity [27]: Non-Toxic
IC50 at 96 h [28]: 60.5 µM
Activity [29]: Non-Toxic

inhibition [1]: 92.2%
inhibition [2]: 57.2%
IC50 [3]: 0.0691 µM
SMILES: COc1cccc(C(=O)c2cc(F)c(NC(=O)/C(C#N)=C(/C)O)cc2O[C@@H](C)C(F)(F)F)c1

inhibition [1]: 91.6%
inhibition [2]: 56.4%
IC50 [3]: 0.0718 µM
SMILES: C/C(O)=C(\C#N)C(=O)Nc1cc(O[C@@H](C)C(F)(F)F)c(C(=O)c2ccc(F)cc2)cc1F

inhibition [1]: 92.1%
inhibition [2]: 59.3%
IC50 [3]: 0.0635 µM
SMILES: C/C(O)=C(\C#N)C(=O)Nc1cc(O[C@@H](C)C(F)(F)F)c(C(=O)c2cccc(F)c2)cc1F
